Measured values as given in paper PMC6271988, “New Potentially Active Pyrazinamide Derivatives Synthesized Under Microwave Conditions” (Molecules, 2014).
Values after ≈ are worked out from the molar mass of the structure shown. Like-named read-outs stand apart in the source and are kept apart here.

What was measured:
Candida tropicalis 156 = experiment: Antifungal evaluation, microdilution broth method; assay type: cell-based; conditions: CT
Description: (§1) Antifungal evaluation was also accomplished with microdilution broth method. On the contrary, there was used RPMI 1640 broth with glutamine as medium and conditions were humid and dark atmosphere, pH 7.0 (adjusted with 0.165 M morpholinepropanesulfonic acid, MOPS) and 35 °C. 8 fungal strains were used (Candida albicans ATCC 44859, Candida tropicalis 156, Candida krusei E28, Candida glabrata 20/I, Trichosporon asahii 1188, Aspergillus fumigatus 231, Lichtheimia corymbifera 272, Trichophyton mentagrophytes 445) together with four antimycotic standards amphotericin B, voriconazole, nystatin and fluconazole.

Trichosporon asahii 1188 = experiment: Antifungal evaluation, microdilution broth method; assay type: cell-based; conditions: TA
Description: as §1

Candida glabrata 20/I = experiment: Antifungal evaluation, microdilution broth method; assay type: cell-based; conditions: CG
Description: as §1

[1] = test system: Lichtheimia corymbifera 272; experiment: Antifungal evaluation, microdilution broth method; assay type: cell-based; conditions: LC
Description: as §1

[2] = test system: Candida albicans ATCC 44859; experiment: Antifungal evaluation, microdilution broth method; assay type: cell-based; conditions: CA
Description: as §1

[3] = test system: Aspergillus fumigatus 231; experiment: Antifungal evaluation, microdilution broth method; assay type: cell-based; conditions: AF
Description: as §1

Candida krusei E28 = experiment: Antifungal evaluation, microdilution broth method; assay type: cell-based; conditions: CK
Description: as §1

[4] = test system: Trichophyton mentagrophytes 445; experiment: Antifungal evaluation, microdilution broth method; assay type: cell-based; conditions: TM
Description: as §1

[5] = test system: PET in spinach chloroplasts; experiment: Photosynthetic electron transport (PET) inhibition, DCPIP photoreduction; assay type: biochemical, Spinacia oleracea L.; conditions: for IC50: DCPIP photoreduction
Description: The inhibition of photosynthetic electron transport (PET) in spinach chloroplasts was determined spectrophotometrically (Genesys 6, Thermo Scientific, Madison, WI, USA) using an artificial electron acceptor 2,6-dichlorophenol-indophenol (DCPIP). The rate of photosynthetic electron transport was monitored as a photoreduction of DCPIP. Chloroplasts were prepared from Spinacia oleracea L.. The measurements were carried out in phosphate buffer (0.02 mol/L, pH 7.2) containing sucrose (0.4 mol/L), MgCl2 (0.005 mol/L) and NaCl (0.015 mol/L). The chlorophyll concentration was 30 mg/L and the samples were irradiated (~100 W/m^2 with 10 cm distance) with a halogen lamp (250 W). […] The studied compound were dissolved in DMSO due to their limited water solubility. […] The efficiency of studied compounds was expressed as 50% inhibition concentration relative to the untreated control. The standard for these measurements was DCMU (Diurone®).

[6] = Lipophilicity HPLC determination (logk); assay type: physicochemical; conditions: HPLC capacity factor, C18, MeOH 70%/H2O 30%, 30 °C
[7] = test system: spectrum of fungi tested (8 fungal strains); experiment: Antifungal evaluation, summary over the fungi tested; assay type: cell-based
Description: as §1

[8] = test system: Staphylococcus epidermidis; experiment: Antibacterial in vitro screening, microdilution broth method; assay type: cell-based; conditions: 80% inhibition of control
[9] = test system: Mycobacterium tuberculosis H37Rv; experiment: Antimycobacterial in vitro screening, microdilution broth panel method, Alamar Blue; assay type: cell-based; conditions: 336 h, M. tuberculosis H37Rv, Middlebrook 7H9, 14 days of incubation
[10] = Trichosporon asahii, 1188, 24 h
[11] = Trichosporon asahii, 1188, 48 h
[12] = Nakaseomyces glabratus, 20/I, 24 h
[13] = Nakaseomyces glabratus, 20/I, 48 h
[14] = Lichtheimia corymbifera, 272, 24 h
[15] = Lichtheimia corymbifera, 272, 48 h
[16] = Candida albicans, ATCC44859, 24 h
[17] = Candida albicans, ATCC44859, 48 h
[18] = Aspergillus fumigatus, 231, 24 h
[19] = Aspergillus fumigatus, 231, 48 h
[20] = Trichophyton mentagrophytes, 445, 72 h
[21] = Trichophyton mentagrophytes, 445, 120 h
[22] = nearly a whole spectrum of fungi tested, after 24 h of incubation, read-out: 80% inhibition of control (IC80), range over fungi

Row | Compound | IC80 (Candida tropicalis 156; Candida tropicalis, 156, 24 h) [µM] | IC80 (Candida tropicalis 156; Candida tropicalis, 156, 48 h) [µM] | IC80 (Trichosporon asahii 1188; [10]) [µM] | IC80 (Trichosporon asahii 1188; [11]) [µM] | IC80 (Candida glabrata 20/I; [12]) [µM] | IC80 (Candida glabrata 20/I; [13]) [µM] | IC80 [1, 14] [µM] | IC80 [1, 15] [µM] | IC80 [2, 16] [µM] | IC80 [2, 17] [µM] | IC80 [3, 18] [µM] | IC80 [3, 19] [µM] | IC80 (Candida krusei E28; Pichia kudriavzevii, E28, 24 h) [µM] | IC80 (Candida krusei E28; Pichia kudriavzevii, E28, 48 h) [µM] | IC80 [4, 20] [µM] | IC80 [4, 21] [µM] | IC50 [5] [µM] | logk [6] | further results
1 | NC(=O)c1nccnc1NC1CCCC1 [Compound 11, 3-(Cyclopentylamino)pyrazine-2-carboxamide] | > 500 | > 500 | 500 | > 500 | 250 | > 500 | > 500 | > 500 | 500 | > 500 | 500 | > 500 | 250 | 500 | 500 | 500 | 25.8 | 0.2537 | IC80 ([7]; fungi tested, less active than the standards, read-out: IC80 antifungal): ≥ 250 µM
2 | NC(=O)c1nccnc1NC1CCCCC1 [Compound 12, 3-(Cyclohexylamino)pyrazine-2-carboxamide] | 125 | 500 | 31.2 | 250 | 15.6 | 31.2 | 250 | 500 | 31.2 | 62.5 | 15.6 | 62.5 | 15.6 | 62.5 | 15.6 | 15.6 | 83 | 0.4523 | IC80 [7, 22]: 15.6 to 31.2 µM
3 | NC(=O)c1nccnc1NC1CCCCCC1 [Compound 13, 3-(Cycloheptylamino)pyrazine-2-carboxamide] | 62.5 | 500 | 31.2 | 125 | 7.81 | 15.6 | 62.5 | 250 | 15.6 | 31.2 | 7.81 | 7.81 | 7.81 | 31.2 | 15.6 | 15.6 | 19.3 | 0.6575 | IC80 [8]: < 250 µM; IC80 [7, 22]: 7.81 to 31.2 µM
4 | NC(=O)c1nccnc1N1CCOCC1 [Compound 16, 3-(Morpholin-4-yl)pyrazine-2-carboxamide] |  |  |  |  |  |  |  |  |  |  |  |  |  |  |  |  |  | −0.6238 | PET inhibition (result in words) [5]: did not inhibit PET
5 | CN1CCN(c2nccnc2C(N)=O)CC1 [Compound 17, 3-(4-Methylpiperazin-1-yl)pyrazine-2-carboxamide] |  |  |  |  |  |  |  |  |  |  |  |  |  |  |  |  |  | −0.4253 | PET inhibition (result in words) [5]: did not inhibit PET
6 | NC(=O)c1nccnc1N1CCNCC1 [Compound 18, 3-(Piperazin-1-yl)pyrazine-2-carboxamide] |  |  |  |  |  |  |  |  |  |  |  |  |  |  |  |  |  | −2.3522 | PET inhibition (result in words) [5]: did not inhibit PET
7 | CN(C)C(=O)Nc1ccc(Cl)c(Cl)c1 [DCMU, 3-(3,4-dichlorophenyl)-1,1-dimethylurea, reference compound] |  |  |  |  |  |  |  |  |  |  |  |  |  |  |  |  | 1.9 |  | 
8 | OC(Cn1cncn1)(Cn1cncn1)c1ccc(F)cc1F [FLU, fluconazole] | > 500 | > 500 | 250 | 500 | 31.2 | 250 | > 500 | > 500 | 0.24 | 0.24 | > 500 | > 500 | 125 | 250 | 7.81 | 125 |  |  | 
9 | C[C@@H]1[C@H](O)[C@@H](C)/C=C/C=C/CC/C=C/C=C/C=C/C=C/C(O[C@H]2O[C@H](C)[C@@H](O)[C@H](N)[C@@H]2O)CC2O[C@](O)(CC(O)C(O)CCC(O)CC(O)CC(O)CC(=O)O[C@H]1C)CC(O)C2C(=O)O (stereo partly shown) [NYS, nystatin] |  |  |  |  |  |  |  |  |  |  |  |  |  |  |  |  |  |  | IC80 (Candida tropicalis 156; 24 h): 1.95 µM; IC80 (Candida tropicalis 156; 48 h): 3.9 µM; IC80 (Trichosporon asahii 1188; 24 h): 1.95 µM; IC80 (Trichosporon asahii 1188; 48 h): 1.95 µM; IC80 (Candida glabrata 20/I; 24 h): 1.95 µM; IC80 (Candida glabrata 20/I; 48 h): 3.9 µM; IC80 ([1]; 24 h): 15.6 µM; IC80 ([1]; 48 h): 31.2 µM; IC80 ([2]; 24 h): 0.98 µM; IC80 ([2]; 48 h): 1.95 µM; IC80 ([3]; 24 h): 1.95 µM; IC80 ([3]; 48 h): 3.9 µM; IC80 (Candida krusei E28; 24 h): 1.95 µM; IC80 (Candida krusei E28; 48 h): 3.9 µM; IC80 ([4]; 72 h): 3.9 µM; IC80 ([4]; 120 h): 7.81 µM
10 | C[C@@H](c1ncncc1F)[C@](O)(Cn1cncn1)c1ccc(F)cc1F [VOR, voriconazole] | 250 | 250 | 7.81 | 31.2 | 250 | 250 | 250 | 250 | 0.008 | 0.008 | 0.49 | 0.98 | 0.98 | 1.95 | 0.06 | 0.12 |  |  | 
11 | NNC(=O)c1ccncc1 [isoniazid] |  |  |  |  |  |  |  |  |  |  |  |  |  |  |  |  |  |  | MIC [9]: 0.39 µg/mL (≈ 2.84 µM)
12 | NC(=O)c1cnccn1 [pyrazinamide] |  |  |  |  |  |  |  |  |  |  |  |  |  |  |  |  |  |  | MIC [9]: 12.5 µg/mL (≈ 102 µM)
